# Experimental data reported in patent US6294537A, “Compounds which are specific antagonists of the human NK3 receptor and their use as medicinal products and diagnostic tools” (Sanofi-Synthelabo, priority 1999, dated 2001).
# Residues, ends and D or L forms follow the SMILES beside them. No end group written: not given here.
# Legend:
# [1] = biological target: T1, NK1 receptors of rat cortex (Rattus norvegicus, UniProt P14600); assay: Binding of [125I]BH-SP to NK1 receptors of rat cortex; settings: read-out: inhibition constant Ki, rat cortex NK1 receptor
# T1 construct: NK1 receptors of rat cortex; from tissue; host or cells: rat cortex
# T1 sequence (P14600 whole entry): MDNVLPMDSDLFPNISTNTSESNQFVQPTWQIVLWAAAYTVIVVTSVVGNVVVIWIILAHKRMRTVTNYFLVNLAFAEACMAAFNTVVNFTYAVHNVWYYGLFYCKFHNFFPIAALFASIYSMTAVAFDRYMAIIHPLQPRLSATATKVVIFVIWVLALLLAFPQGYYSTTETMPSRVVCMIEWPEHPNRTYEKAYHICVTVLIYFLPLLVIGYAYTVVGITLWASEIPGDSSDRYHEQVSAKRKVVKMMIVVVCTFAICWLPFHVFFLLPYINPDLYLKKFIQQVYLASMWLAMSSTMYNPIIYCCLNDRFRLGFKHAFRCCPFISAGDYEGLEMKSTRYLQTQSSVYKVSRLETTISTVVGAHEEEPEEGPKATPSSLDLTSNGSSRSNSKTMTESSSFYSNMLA
# Experimental: (§1) The affinity of the compounds of formula (I') for the tachykinin receptors was evaluated in vitro by several biochemical assays using radioligands:
# 1) The binding of [^125 I]BH-SP (substance P labeled with iodine 125 with the aid of the Bolton-Hunter reagent) to the NK1 receptors of rat cortex, of guinea pig ileum and of human lymphoblastic cells.
# (§2) The assays were carried out according to X. Emonds-Alt et al. (Eur. J. Pharmacol., 1993, 250, 403-413).
# [2] = biological target: T2, NK2 receptor of rat duodenum (Rattus norvegicus, UniProt P16610); assay: Binding of [125I]His-NKA to NK2 receptors of rat duodenum; settings: read-out: inhibition constant Ki, rat duodenum NK2 receptor
# T2 construct: NK2 receptors of rat duodenum; from tissue; host or cells: rat duodenum
# T2 sequence (P16610 1-390): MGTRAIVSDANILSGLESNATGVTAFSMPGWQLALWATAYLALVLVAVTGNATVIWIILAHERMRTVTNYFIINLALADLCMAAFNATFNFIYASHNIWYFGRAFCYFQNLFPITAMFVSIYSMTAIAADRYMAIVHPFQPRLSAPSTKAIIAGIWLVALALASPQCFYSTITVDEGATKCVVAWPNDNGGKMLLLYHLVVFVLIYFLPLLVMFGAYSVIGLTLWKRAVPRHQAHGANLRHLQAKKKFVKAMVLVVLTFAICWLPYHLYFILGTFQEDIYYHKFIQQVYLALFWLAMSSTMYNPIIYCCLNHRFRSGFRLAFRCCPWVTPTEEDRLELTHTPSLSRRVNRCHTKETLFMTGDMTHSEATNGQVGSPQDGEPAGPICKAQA
# Experimental: as §1
# 2) The binding of [^125 I]His-NKA to the NK2 receptors of rat duodenum or of guinea pig ileum.
# as §2
# [3] = biological target: T3, human NK3 receptor (Homo sapiens, UniProt P29371); assay: Binding of [125I]His[MePhe7]NKB to cloned human NK3 receptors expressed by CHO cells; settings: for Ki: cloned human NK3 receptors expressed by CHO cells, read-out: inhibition constant Ki, human NK3 receptor; for selectivity / specificity for the human NK3 receptor: from Ki at human NK3 versus rat NK2/NK1 receptors
# T3 construct: expressed in transfected cells; host or cells: CHO cells
# T3 sequence (P29371 1-465): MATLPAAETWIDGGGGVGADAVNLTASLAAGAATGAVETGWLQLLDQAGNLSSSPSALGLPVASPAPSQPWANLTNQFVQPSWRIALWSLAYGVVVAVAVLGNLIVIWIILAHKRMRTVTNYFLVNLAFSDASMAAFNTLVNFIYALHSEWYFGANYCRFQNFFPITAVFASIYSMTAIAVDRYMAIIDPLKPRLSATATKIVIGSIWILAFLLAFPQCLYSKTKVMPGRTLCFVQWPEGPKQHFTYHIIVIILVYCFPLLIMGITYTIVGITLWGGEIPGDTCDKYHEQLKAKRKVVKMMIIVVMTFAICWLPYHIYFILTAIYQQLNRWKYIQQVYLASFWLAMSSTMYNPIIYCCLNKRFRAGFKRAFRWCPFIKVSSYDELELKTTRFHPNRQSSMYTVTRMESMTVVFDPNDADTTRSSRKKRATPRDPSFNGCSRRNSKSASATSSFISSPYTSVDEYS
# Experimental: as §1
# (§3) 3) The binding of [^125 I]His[MePhe^7 ]NKB to the NK3 receptors of rat cerebral cortex, of guinea pig cerebral cortex and of gerbil cerebral cortex as well as to the cloned human NK3 receptors expressed by CHO cells (Buell et al., FEBS Letters, 1992, 299, 90-95).
# as §2
# [4] = biological target: rat NK3 receptor; settings: Patent Application EP 512901; read-out: Ki, antagonizes the binding of eledoisin; cited from earlier work
# [5] = biological target: T4, NK3 receptors of rat cerebral cortex (Rattus norvegicus, UniProt P16177); assay: Binding of [125I]His[MePhe7]NKB to NK3 receptors of rat cerebral cortex; settings: read-out: inhibition constant Ki, rat NK3 receptor
# T4 construct: NK3 receptors of rat cerebral cortex; from tissue; host or cells: rat cerebral cortex
# T4 sequence (P16177 1-452): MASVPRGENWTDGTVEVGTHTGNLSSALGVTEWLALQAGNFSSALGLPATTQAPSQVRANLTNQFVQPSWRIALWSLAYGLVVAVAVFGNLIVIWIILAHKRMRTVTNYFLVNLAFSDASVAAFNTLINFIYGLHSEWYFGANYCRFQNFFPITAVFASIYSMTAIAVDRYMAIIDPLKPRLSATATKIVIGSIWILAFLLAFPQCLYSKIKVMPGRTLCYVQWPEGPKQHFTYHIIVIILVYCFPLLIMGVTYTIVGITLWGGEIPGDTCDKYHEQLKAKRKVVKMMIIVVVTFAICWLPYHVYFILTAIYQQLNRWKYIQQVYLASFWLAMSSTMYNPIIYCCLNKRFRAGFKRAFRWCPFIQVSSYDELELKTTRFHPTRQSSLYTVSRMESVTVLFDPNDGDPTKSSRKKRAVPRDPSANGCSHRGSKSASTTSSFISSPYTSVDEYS
# Experimental: as §1, §3, §2
# [6] = test system: NK3 receptor; assay: Rotating behavior induced in gerbils by intrastriatal senktide; assay type: in vivo; settings: gerbil; unilateral application in the striatum
# Experimental: (§4) The compounds according to the present invention were also evaluated in vivo on two animal models.
# [7] = test system: NK3 receptor; assay: Hypertension induced in guinea pigs by intravenous or intracerebroventricular senktide; assay type: in vivo; settings: guinea pig; intravenous or intracerebroventricular injection
# Experimental: as §4
# [8] = test system: rat NK3 receptor; settings: literature, J. Autonomic Pharmacol. 1993; cited from earlier work
Compound,Ki [2] [nM],Ki [3] [nM],selectivity / specificity for the human NK3 receptor [3],other results
"CN(CC(CCCN1CCC(O)(c2ccccc2)CC1)c1ccc(Cl)c(Cl)c1)C(=O)c1ccccc1.Cl (stereo not drawn) [Example 1, N-Methyl-N-[2-(3,4-dichlorophenyl)-5-(4-hydroxy-4-phenylpiperid-1-yl)pentyl]benzamide hydrochloride]",500,5,high specificity,Ki [1]: 500 nM
"Cl.O=C1CCC(CCN2CCC(O)(c3ccccc3)CC2)(c2ccc(Cl)c(Cl)c2)CN1Cc1ccccc1 (stereo not drawn) [compound A, 5-[2-(4-hydroxy-4-phenylpiperid-1-yl)ethyl]-5-(3,4-dichlorophenyl)-1-benzylpiperid-2-one hydrochloride]",0.1,1,not selective,Ki [4]: 200 nM; Ki [5]: 100 nM
CSCC[C@H](NC(=O)[C@H](CC(C)C)NC(=O)CNC(=O)[C@H](Cc1ccccc1)N(C)C(=O)[C@H](Cc1ccccc1)NC(=O)[C@H](CC(=O)O)NC(=O)CCC(=O)O)C(N)=O [senktide] (HELM PEPTIDE1{[O=C(O)CCC(=O)[*:2]].D.F.[meF].G.L.M.[am]}$$$$V2.0),,,,contralateral rotations induced by senktide [6]: strong contralateral rotations; hypertension induced by senktide [7]: induces a hypertension
"[Trp^7, Ala^8 ]NKA: A peptide antagonist, weakly specific for rat NK3 receptor (HKTDSFWALM; ends and bridges not checked; UniProt P20366 98-107, looked up, variant V7W G8A)",,,,specificity for rat NK3 receptor [8]: weakly specific
